pIC50: −log10 of the molar value.
Target: T1, Mitogen-activated protein kinase kinase kinase 19 (Homo sapiens, UniProt Q56UN5)
T1 sequence (Q56UN5 whole entry): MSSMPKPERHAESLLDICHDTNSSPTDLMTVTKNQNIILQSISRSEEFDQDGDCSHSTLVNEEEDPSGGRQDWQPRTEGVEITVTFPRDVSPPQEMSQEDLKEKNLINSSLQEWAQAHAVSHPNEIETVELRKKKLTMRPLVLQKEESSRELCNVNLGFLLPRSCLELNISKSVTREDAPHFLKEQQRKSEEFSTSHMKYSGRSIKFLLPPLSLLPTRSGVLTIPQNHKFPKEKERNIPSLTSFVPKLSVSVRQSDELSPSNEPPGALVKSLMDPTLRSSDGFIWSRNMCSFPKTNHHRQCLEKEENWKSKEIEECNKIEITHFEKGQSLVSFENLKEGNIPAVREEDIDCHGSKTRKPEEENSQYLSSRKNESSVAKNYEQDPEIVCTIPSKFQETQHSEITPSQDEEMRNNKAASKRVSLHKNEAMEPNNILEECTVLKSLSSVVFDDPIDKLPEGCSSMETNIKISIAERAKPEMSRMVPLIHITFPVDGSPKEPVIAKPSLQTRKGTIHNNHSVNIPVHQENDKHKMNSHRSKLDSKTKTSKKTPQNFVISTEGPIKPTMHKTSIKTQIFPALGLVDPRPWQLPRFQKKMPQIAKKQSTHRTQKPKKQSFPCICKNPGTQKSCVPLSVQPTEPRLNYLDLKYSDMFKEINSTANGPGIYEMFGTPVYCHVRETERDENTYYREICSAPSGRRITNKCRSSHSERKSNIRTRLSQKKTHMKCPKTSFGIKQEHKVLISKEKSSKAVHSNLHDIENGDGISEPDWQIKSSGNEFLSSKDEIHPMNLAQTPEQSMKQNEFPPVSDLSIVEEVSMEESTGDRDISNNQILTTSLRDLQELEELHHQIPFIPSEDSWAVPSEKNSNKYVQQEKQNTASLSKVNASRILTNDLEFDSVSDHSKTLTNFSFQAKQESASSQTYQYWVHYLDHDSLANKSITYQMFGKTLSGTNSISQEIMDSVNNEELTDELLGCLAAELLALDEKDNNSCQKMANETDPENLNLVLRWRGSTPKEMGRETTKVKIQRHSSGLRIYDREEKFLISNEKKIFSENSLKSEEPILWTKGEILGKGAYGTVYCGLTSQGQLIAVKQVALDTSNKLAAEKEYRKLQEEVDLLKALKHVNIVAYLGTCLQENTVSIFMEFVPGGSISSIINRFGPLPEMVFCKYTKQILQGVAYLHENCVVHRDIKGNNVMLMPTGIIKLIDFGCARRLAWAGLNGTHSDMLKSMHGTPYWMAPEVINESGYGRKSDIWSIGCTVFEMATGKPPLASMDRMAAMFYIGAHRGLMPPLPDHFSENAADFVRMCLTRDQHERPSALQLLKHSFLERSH
Test: In Vitro Effect Assay: Table 5: The experimental procedure referred to the Z′-LYTE Screening Protocol and Assay Conditions provided by ThermoFisher Scientific. C-1. […] Peptide/Kinase Mixture was pre-diluted with Kinase Buffer to 2× working concentration. ATP solution was pre-diluted with Kinase Buffer (50 mM HEPES pH 7.5, 0.01% BRIJ-35, 10 mM MgCl2, 1 mM EGTA) to 4× working concentration. […], which contains 2 mg/mL Phosphatidyl Serine, 0.2 mg/mL DAG in 20 mM HEPES, pH 7.4 and 0.3% CHAPS, and was pre-diluted 10 fold with development buffer.C-2. Analytical Method. 1. 100 nL of the above diluted test compound and 2.4 μL of kinase buffer were added to a black 384-well plate (Corning, Cat. NO. 4514), then add 5 μL of the peptide/kinase mixture mentioned above was added thereto, and after that 2.5 μL of ATP solution was added thereto, and the culture plate was shaken for 30 seconds.2. Next, the culture plate was placed at room temperature and incubated for 60 minutes.3. After that 5 μL of the development reagent solution was added and the culture plate was shaken for 30 seconds in the dark, and then the data was read and analyzed with a fluorescence plate reader. […]

SMILES	pIC50
NCC(Oc1ccc(C(F)(F)F)cc1)C(=O)Nc1ccc(-c2cn[nH]c2)cc1 (configuration not stated)	< 5.00
NCC(C(=O)Nc1ccc(-c2cn[nH]c2)cc1)c1ccc(CO)cc1 (configuration not stated)	< 6.00
